Experimental data taken from article PMC5441875 (eLife, 2017).
Where “and” joins values, the source holds several entries; their conditions need not be identical. Identical values can stand only once. Like-named read-outs stand apart in the source and are kept apart here.

Tests used:
[1] = target: T1, WT GluN1/GluN2A receptors (Rattus norvegicus, UniProt P35439+Q00959); assay: Potentiation by the positive allosteric modulator GNE-6901, whole-cell patch-clamp; assay type: cell-based; set-up: expressed in transfected cells; host or cells: HEK-293 cells (ATCC), PEI transfection, pcDNA3-based vectors
Experimental: (§1) Receptor functionality and light-sensitivity were assessed in patch-clamp recordings of lifted whole cells 24–72 hr post transfection. Positively transfected cells were visualized by GFP-fluorescence. […] The osmolarity was 270–290 mOsm. The cells were continuously perfused with a Ringer solution containing (in mM): 140 NaCl, 2.8 KCl, 1 CaCl2, 0.01 DTPA, 10 HEPES and five sucrose (pH 7.3 with NaOH). The osmolarity was 290 mOsm. DTPA was added to prevent tonic inhibition of NMDARs by ambient zinc ([Paoletti et al., 1997]). Currents were recorded using an Axopatch 200B amplifier and a Digidata 1550A interface (Molecular Devices), sampled at 10–20 kHz, and low-pass filtered at 2–5 kHz. The cells were voltage-clamped at −60 mV. pClamp 10.5 (Molecular Devices) was used to acquire the data. All recordings were performed at room temperature.
(§2) Agonists or other pharmacological substances were applied using a multi-barrel rapid solution exchanger system (RSC 200, Bio-Logic). […] The agonist deactivation kinetics were assessed by including the converse co-agonist to the control solution. For Mg^2+-DRCs, the concentration of DTPA, which has orders of magnitude higher affinity for Zn^2+ than Mg^2+ ([Paoletti et al., 1997]), was reduced to 1 µM to avoid excessive Mg^2+ chelation, while maintaining depletion of ambient zinc (estimated in the few hundreds of nM). Accordingly, Mg^2+ concentrations reported in the Mg^2+-DRC were not corrected and correspond to the nominal concentrations of added Mg^2+. MK-801 was applied at 1 μM to assure full inhibition of WT NMDAR-mediated currents. The positive allosteric modulator (PAM) GNE-6901 (obtained from Genentech, South San Francisco, USA) was used at a final concentration of 30 μM ([Hackos et al., 2016]).
(§3) Computer-controlled light pulses during electrophysiological recordings were provided from sensitive high power LEDs (Prizmatix). […] The LED port was directly coupled via a microscope adaptor to the fluorescence port of an inverted DIAPHOT 300 Nikon microscope. […]

[2] = tested on: GluN1-P532PSAA/GluN2A receptors; assay: as above; assay type: cell-based, rat
Experimental: as §1
Agonists or other pharmacological substances were applied using a multi-barrel rapid solution exchanger system (RSC 200, Bio-Logic). […] The agonist deactivation kinetics were assessed by including the converse co-agonist to the control solution. […]
as §3

[3] = tested on: GluN1-P532PSAA/GluN2A receptors; assay: MK-801 open channel block kinetics, whole-cell patch-clamp; assay type: cell-based, rat
Experimental: as §1, §2
(§4) Computer-controlled light pulses during electrophysiological recordings were provided from sensitive high power LEDs (Prizmatix). The three following LEDs were used: Mic-LED-365 (UV, 200 mW), UHP-Mic-LED-460 (blue, 2W) and UHP-Mic-LED-520 (green, 900 mW). The LED port was directly coupled via a microscope adaptor to the fluorescence port of an inverted DIAPHOT 300 Nikon microscope. The output beams of the three Mic-LEDs were joined by a dichroic beam combiner module and the resulting light was applied to the center of the recording dish through a 10X objective (Leitz Wetzlar). The light intensity of all three LEDs was set to 100%, unless otherwise noted.
(§5) Current traces obtained in electrophysiological recordings were transferred to Igor Pro (version 6.3) or Clampfit (version 10.5) for display and analysis. The kinetics of photoinactivation and photopotentiation were obtained by fitting currents with a single exponential function as follows: Y = A*exp(-t/τ) + C, with A as the initial current amplitude, Tau (τ) the decay time constant, and C the steady-state level. The inhibition by MK-801 was also fit with a monoexponential function. […] Accordingly, and for comparative purposes, only single exponential fits were used when studying MK-801 inhibition. Agonist DRCs were fit with the following Hill equation: Irel = 1/(1 + (EC50 / [ago])^nH), with EC50 and the Hill coefficient (nH) as free parameters. For Mg^2+-DRCs the following equation was used: Irel = 100*(1-(a/(1+[IC50]/[Mg^2+)^nH,)), where a is the maximal current inhibition by Mg^2+. IC50, a, and the Hill coefficient (nH) were set as free parameters.

[4] = tested on: GluN1-F654PSAA/GluN2A receptors; assay: MK-801 open channel block (kinetics and extent), whole-cell patch-clamp; assay type: cell-based, rat
Experimental: as §1, §2, §4, §5

[5] = tested on: GluN1-Y647PSAA/GluN2A receptors; assay: as above; assay type: cell-based, rat; conditions: 1 µM MK-801, Y647PSAA mutant
Experimental: as §1, §2, §4, §5

[6] = target: T1, WT GluN1/GluN2A receptors; assay: as above; assay type: cell-based; set-up: expressed in transfected cells; host or cells: HEK-293 cells (ATCC), PEI transfection, pcDNA3-based vectors; conditions: 1 µM MK-801, WT
Experimental: as §1, §2, §4, §5

[7] = target: T1, WT GluN1/GluN2A receptors; assay: Magnesium dose-response curves (Mg2+-DRCs), whole-cell patch-clamp; assay type: cell-based; set-up: expressed in transfected cells; host or cells: HEK-293 cells (ATCC), PEI transfection, pcDNA3-based vectors
Experimental: as §1, §2, §3

[8] = tested on: GluN1-F654PSAA/GluN2A receptors; assay: as above; assay type: cell-based, rat; conditions: F654PSAA mutant
Experimental: as §1, §2, §4, §5

[9] = tested on: GluN1-Y647PSAA/GluN2A receptors; assay: as above; assay type: cell-based, rat; conditions: Y647PSAA mutant
Experimental: as §1, §2, §4, §5

[10] = UV/Vis spectra of the free PSAA photoisomers; assay type: physicochemical; conditions: isopropanol, 5 min irradiation at 460 nm
Experimental: The UV/Vis spectra of the free PSAA (100 μM) were measured using a UVIKON 922 spectrophotometer (Kontron Instruments) in 1 x 1 × 4 cm quartz cuvettes. The spectra were measured at two different conditions: (i) with PSAA in the extracellular (Ringer) solution to be as close as possible to the recording conditions, and (ii) in isopropanol to mimic a hydrophobic environment (since PSAA is buried in the protein) ([Ye et al., 2009]). To induce the different photoisomers, the dissolved PSAA was directly irradiated in the cuvette at 365 nm (30 mW), 460 nm (241 mW), and 525 nm (35 mW) using a Cool LED pE-4000 illumination system. The UV spectra of the pure trans-isomer were recorded upon storage in the dark.

[11] = tested on: GluN1-P532PSAA/GluN2A receptors; conditions: PSAA-mutant; for τdeact,UV (example trace) / τdeact,BLUE (example trace): single example trace; for τdeact,BLUE (example trace): blue light
Experimental: as §1, §2, §4
The weighted deactivation time constants were calculated with: τw =( Af/(Af+As))*τf + (As /(Af + As))*τs.

[12] = target: GluN1-P532PSAA/GluN2A receptors; conditions: PSAA-mutant
Experimental: as §1, §2
Computer-controlled light pulses during electrophysiological recordings were provided from sensitive high power LEDs (Prizmatix).

[13] = tested on: GluN1-P532PSAA/GluN2A receptors; assay: UV-induced photoinhibition of currents in the presence of ligands (glycine concentrations, competitive antagonists, PAM); assay type: cell-based, rat
Experimental: as §1, §2, §4

[14] = 1 µM MK-801, F654PSAA mutant, UV
[15] = 1 µM MK-801, F654PSAA mutant, dark
[16] = blue light, read-out: IC50 BLUE
[17] = read-out: EC50,BLUE, blue light (460 nm)
[18] = read-out: EC50,DARK, dark, 100 μM of the respective co-agonist
[19] = read-out: EC50,UV, UV light (365 nm)

T1 sequence (Q00959 23-1464, other chains not shown): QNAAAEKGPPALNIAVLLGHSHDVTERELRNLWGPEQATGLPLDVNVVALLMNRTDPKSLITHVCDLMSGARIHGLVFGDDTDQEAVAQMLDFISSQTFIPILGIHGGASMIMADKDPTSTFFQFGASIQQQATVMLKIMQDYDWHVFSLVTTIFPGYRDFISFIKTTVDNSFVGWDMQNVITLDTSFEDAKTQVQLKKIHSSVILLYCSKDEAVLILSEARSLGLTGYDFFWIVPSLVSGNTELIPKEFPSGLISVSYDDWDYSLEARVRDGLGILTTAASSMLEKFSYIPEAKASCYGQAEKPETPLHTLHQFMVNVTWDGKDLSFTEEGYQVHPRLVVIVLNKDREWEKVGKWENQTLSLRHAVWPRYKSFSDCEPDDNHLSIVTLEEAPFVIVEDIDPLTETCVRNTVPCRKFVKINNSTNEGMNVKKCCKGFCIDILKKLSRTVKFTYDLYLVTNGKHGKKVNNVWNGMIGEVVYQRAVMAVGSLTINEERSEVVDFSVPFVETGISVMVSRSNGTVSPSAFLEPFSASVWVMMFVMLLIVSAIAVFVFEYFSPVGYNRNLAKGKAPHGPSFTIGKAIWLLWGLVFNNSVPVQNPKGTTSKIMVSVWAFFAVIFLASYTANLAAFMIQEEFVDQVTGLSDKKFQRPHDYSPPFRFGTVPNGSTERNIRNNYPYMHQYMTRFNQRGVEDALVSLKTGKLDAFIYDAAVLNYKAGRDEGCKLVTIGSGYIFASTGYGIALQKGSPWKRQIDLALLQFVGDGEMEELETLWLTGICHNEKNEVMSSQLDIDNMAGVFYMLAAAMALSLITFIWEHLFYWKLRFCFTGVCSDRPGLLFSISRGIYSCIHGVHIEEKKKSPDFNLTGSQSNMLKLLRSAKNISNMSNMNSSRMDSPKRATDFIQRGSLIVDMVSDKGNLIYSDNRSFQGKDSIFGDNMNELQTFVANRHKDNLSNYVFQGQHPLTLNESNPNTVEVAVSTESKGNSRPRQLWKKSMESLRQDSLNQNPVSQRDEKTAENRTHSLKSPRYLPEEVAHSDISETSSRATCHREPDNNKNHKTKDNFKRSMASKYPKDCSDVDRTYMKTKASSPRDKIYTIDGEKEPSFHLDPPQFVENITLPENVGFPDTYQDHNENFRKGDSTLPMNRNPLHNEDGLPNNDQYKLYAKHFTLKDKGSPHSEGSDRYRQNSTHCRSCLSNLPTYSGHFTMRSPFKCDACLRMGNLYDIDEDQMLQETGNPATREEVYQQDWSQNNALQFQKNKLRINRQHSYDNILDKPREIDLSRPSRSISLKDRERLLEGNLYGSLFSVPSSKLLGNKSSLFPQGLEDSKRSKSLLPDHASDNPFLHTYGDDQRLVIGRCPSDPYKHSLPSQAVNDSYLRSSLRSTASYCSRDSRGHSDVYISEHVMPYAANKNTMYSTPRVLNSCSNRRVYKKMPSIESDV

Cc1sc2nc(COc3ccc(F)cc3)cc(=O)n2c1[C@@H]1C[C@H]1CO [GNE-6901]
mean fold-potentiation by PAM ([1]; GNE-6901 30 µM, WT): 2.3 ± 0.3 fold | fold potentiation (example trace) ([1]; GNE-6901 30 µM, WT, example trace): 2.3 fold | effect of PAM application ([1]; WT receptors): strongly potentiated | mean fold-potentiation by PAM ([2]; GNE-6901 30 µM, PSAA mutant, cis and trans pooled): 0.9 ± 0.04 fold | effect of PAM application ([2]; GluN1-P532PSAA mutant receptors): entirely unaffected

C[C@]12N[C@H](Cc3ccccc31)c1ccccc12 [MK-801]
time constant of MK-801 inhibition τUV (example trace) ([3]; 1 µM MK-801, P532PSAA mutant, UV, example): 3200 ms | single-exponential time constant of MK-801 inhibition τUV ([3]; 1 µM MK-801, P532PSAA mutant, UV, mean): 1820 ± 290 ms | time constant of MK-801 inhibition τDARK (example trace) ([3]; 1 µM MK-801, P532PSAA mutant, dark, example): 470 ms | single-exponential time constant of MK-801 inhibition τDARK ([3]; 1 µM MK-801, P532PSAA mutant, dark, mean): 940 ± 160 ms | fold slower MK-801 blocking kinetics ([3]; P532PSAA mutant in dark state vs WT): ~ 1.3 fold | fold slower MK-801 inhibition rates ([3]; P532PSAA mutant under UV exposure): ~ 2 fold | mean extent of block produced by MK-801, BlockUV [4, 14]: 97 ± 1% | time constant of MK-801 inhibition (example trace) [4, 14]: 1000 ms | single-exponential time constant of MK-801 inhibition τUV ([4]; 1 µM MK-801, F654PSAA mutant, UV, mean): 730 ± 70 ms | mean extent of block produced by MK-801, BlockDARK [4, 15]: 90 ± 3% | time constant of MK-801 inhibition (example trace) [4, 15]: 3970 ms | single-exponential time constant of MK-801 inhibition τDARK ([4]; 1 µM MK-801, F654PSAA mutant, dark, mean): 3070 ± 560 ms | degree of MK-801 block ([4]; F654PSAA receptors, across light conditions): ≥ 90% | mean extent of block produced by MK-801, BlockUV ([5]; UV): 86 ± 3% and > 85% | time constant of MK-801 inhibition (example trace) ([5]; UV): 3300 ms | single-exponential time constant of MK-801 inhibition τUV ([5]; UV, mean): 4150 ± 910 ms | mean extent of block produced by MK-801, BlockDARK ([5]; dark (trans)): 69 ± 5% and 69% | time constant of MK-801 inhibition (example trace) ([5]; dark): 4400 ms | single-exponential time constant of MK-801 inhibition τDARK ([5]; dark, mean): 5070 ± 580 ms | mean extent of block produced by MK-801, BlockUV ([6]; UV): 98 ± 1% | time constant of MK-801 inhibition (example trace) ([6]; UV): 700 ms | single-exponential time constant of MK-801 inhibition τUV ([6]; UV, mean): 620 ± 50 ms | single-exponential time constant of MK-801 inhibition τBLUE ([6]; blue, mean): 610 ± 90 ms | mean extent of block produced by MK-801, BlockDARK ([6]; dark): 97 ± 1% | time constant of MK-801 inhibition (example trace) ([6]; dark): 600 ms | single-exponential time constant of MK-801 inhibition τDARK ([6]; dark, mean): 690 ± 140 ms

[Mg+2] [Mg^2+]
IC50 ([7]; UV light, read-out: IC50 UV): 35.8 µM | IC50 [7, 16]: 32.6 µM | IC50 ([7]; dark, nominal Mg2+ concentrations, read-out: IC50 DARK): 34.6 µM | IC50 ([8]; UV light, read-out: IC50 UV): 33.3 µM | IC50 [8, 16]: 34.3 µM | IC50 ([8]; dark, read-out: IC50 DARK): 30 µM | IC50 ([9]; UV light, read-out: IC50,UV): 41.5 µM | IC50 ([9]; blue light, read-out: IC50,BLUE): 102 µM | fold increase in IC50 under dark or blue light ([9]; dark or blue vs UV): 2.5 fold | IC50 ([9]; dark, read-out: IC50,DARK): 103 µM

C=Cc1cccc(/N=N/c2ccc(C[C@H](N)C(=O)O)cc2)c1 [PSAA]
cis/trans ratio [10]: 74%

N[C@@H](CCC(=O)O)C(=O)O [glutamate]
τdeact,UV (example trace) ([11]; UV): 77.7 ms | τdeact,BLUE (example trace) [11]: 79.2 ms | mean weighted deactivation time constant τdeact,DARK [11]: 113 ± 36 ms | EC50 [12, 17]: 13.3 µM | EC50 [12, 18]: 14.6 µM | EC50 [12, 19]: 17.1 µM

NCC(=O)O [glycine]
mean photoinhibition degree Inh1 ([13]; 1 μM glycine): ~95% | mean photoinhibition degree Inh10 ([13]; 10 μM glycine): 76.1 ± 2% | mean photoinhibition degree Inh100 ([13]; 100 μM glycine): 49.9 ± 2.5% | mean photoinhibition degree Inh1000 ([13]; 1000 μM glycine): 33.5 ± 2% | mean weighted deactivation time constant τdeact,UV ([11]; UV): 81 ± 4 ms | τdeact,UV (example trace) ([11]; UV): 75.4 ms | τdeact,BLUE (example trace) [11]: 131.3 ms | mean weighted deactivation time constant τdeact,DARK [11]: 111 ± 9 ms | EC50 [12, 17]: 1.5 µM | EC50 [12, 18]: 1.5 µM | EC50 [12, 19]: 10.5 µM
